Laboratory results from US20220117938A1, “COMBINATON THERAPY WITH A DON PRODRUG AND AN IMMUNE CHECKPOINT INHIBITOR” (DRACEN PHARMACEUTICALS, INC., priority 2019, published 2022).

Test system: Ninety four (94) cell lines and PBMC
Assay: Cell viability assay, SRB staining, 94 cell lines and PBMC (Example 7, Experiment 2)
Type: cell-based
Method: Ninety four (94) cell lines were seeded at a density varying from 500 to 7000 cells/well depending on their growth characteristics. PBMC were seeded at the density 50,000-100,000 cells/well. Cells were incubated for 48 h prior to compound treatment. Compound 1 and DON were evaluated at a concertation range of 1 nM up to 100 μM. Compound 1 dilutions in DMSO and DON dilutions in PBS were performed in 96-well 0.5 mL plates (Greiner Bio-One, Germany). Compounds were then diluted 1:100 in RPMI medium. […] of cells were treated by mixing with 10 μL of the compound-containing media (resulting in a final DMSO concentration of 0.1%). The cells were allowed to grow at 37° C. for 120 h. Cells were fixed to the surface by addition of 10% TCA (for adherent growing cells) or 50% TCA (for semi-adherent growing cells or cells growing in suspension). After an hour of incubation at 4° C., plates were washed twice with 400 μL of deionized water and dried. Cells were then stained with 100 μL of 0.04% wt/v SRB. The plates were incubated at room temperature for at least 30 min and washed six times with 1% acetic acid to remove unbound stain. The plates were left to dry at room temperature and bound SRB was solubilized with 100 μL of 10 mM Tris base. Optical density was measured at 492, 520 and 560 nm using a Deelux-LED96 plate reader (Deelux Labortechnik GmbH, Germany).
Cell lines were purchased directly from the ATCC, NCI, CLS, and DSMZ cell line collections. A master bank and working aliquots were prepared. Cells used for the study had undergone less than 20 passages. To rule out potential contamination or wrong assignment, all cell lines were tested by STR analysis. Absence of mycoplasma contamination was confirmed for all cell lines used in the studies.
The cell lines were grown in the media recommended by the suppliers in the presence of 100 U/mL penicillin and 100 μg/mL streptomycin supplied with 10% FCS (PAA, Germany). RPMI 1640, DMEM, and MEM Earle's medium were from PAA (Coelbe, Germany), supplements 2 mM L-glutamine, 1 mM Na-pyruvate and 1% NEAA were from PAA (Coelbe, Germany), 2.5% horse serum, hydrocortisone, transferin, beta-estradiol, selenite and 1 U/mL insulin from Sigma-Aldrich (Munich, Germany). RPMI medium was used for culturing the following cell lines: 5637, 22RV1, 7860, A2780, A431, A549, ACHN, ASPC1, BT20, BXPC3, CAKI1, CLS439, COLO205, COLO678, DLD1, DU145, EFO21, EJ28, HCT15, HS578T, IGROV1, JAR, LOVO, MCF7, MDA MB231, MDA MB435, MDA MB436, MDA MB468, MHHES1, MT3, NCI H292, NCI H358M, NCI H460, NCIH82, OVCAR3, OVCAR4, PANC 1005 (addition of insulin), PBMC, PC3, RDES, SF268, SF295, SKBR3, SK MEL28, SKMEL5, SKOV3, SW620, U2OS, UMUC3, and U031.
DMEM medium was used to culture A204, A375, A673, C33A, CASKI, HCT116, HEPG2, HS729, HT29, J82, MG63, MIAPACA2 (addition of horse serum), PANC1, PLCPRF5, RD, SAOS2, SKLMS1, SKNAS, SNB75, T24, and TE671.
MEM Earle's medium was used for CACO2, CALU6, HEK293, HELA, HT1080, IMR90, JEG3, JIMT1, SKHEP1, SKNSH, and U87MG. Cell seeding conditions were optimized for each cell line. The cell seeding density varied from 500 to 7000 cells/well depending on their growth characteristics. Peripheral blood mononuclear cells (PBMC) were freshly isolated from whole blood of an anonymous donor through density gradient centrifugation using Ficoll solution (d=1.077). In short, blood was diluted 1:1 with PBS and carefully placed on the Ficoll. After centrifugation 1000×g for 15 min (braking rate 0), the ring containing mainly leucocytes was collected in PBS followed by three times washing with PBS to reduce the platelets. PBMC were seeded at the density 50,000-100,000 cells/well. Cells were grown in 5% CO2 atmosphere in a NB-203XXL incubator (N-BIOTEK Inc., Korea).
Ninety-four cell lines were tested in parallel. Cell growth and treatment were performed in 96 well microtitre plates CELLSTAR® (Greiner Bio-One, Germany). […]

[1] = Homo sapiens, MDA-MB-468, MDAMB468, breast
[2] = Homo sapiens, MG-63, MG63, bone
[3] = Homo sapiens, MHH-ES-1, MHHES1, bone
[4] = Homo sapiens, MIA PaCa-2, MIAPACA2, pancreas
[5] = Homo sapiens, MINO, hematological
[6] = Homo sapiens, MV4-11, MV4-11, hematological
[7] = Homo sapiens, NCI-H292, NCIH292, lung
[8] = Homo sapiens, NCI-H460, NCIH460, lung
[9] = Homo sapiens, OVCAR-3, OVCAR3, ovary
[10] = Homo sapiens, OVCAR-4, OVCAR4, ovary
[11] = Homo sapiens, PANC-1, PANC1, pancreas
[12] = Homo sapiens, PLC-PRF-5, PLCPRF5, liver
[13] = Homo sapiens, Panc1005, PANC1005, pancreas
[14] = Homo sapiens, SAOS-2, SAOS2, bone
[15] = Homo sapiens, SF-268, SF268, brain
[16] = Homo sapiens, SF-295, SF295, brain
[17] = Homo sapiens, SK-BR-3, SKBR3, breast
[18] = Homo sapiens, SK-HEP1, SKHEP1, liver
[19] = Homo sapiens, SK-LMS-1, SKLMS1, uterus
[20] = Homo sapiens, SK-MEL-5, SKMEL5, skin
[21] = Homo sapiens, SK-MEL-28, SKMEL28, skin
[22] = Homo sapiens, SK-N-SH, SKNSH, brain
[23] = Homo sapiens, SK-OV-3, SKOV3, ovary
[24] = Homo sapiens, SU-DHL-6, SU-DHL-6, hematological
[25] = Homo sapiens, SW-620, SW620, colon
[26] = Homo sapiens, TE-671, TE671, muscle
[27] = Homo sapiens, THP-1, THP-1, hematological
[28] = Homo sapiens, U-87 MG, U87MG, brain
[29] = Homo sapiens, UMUC3, UMUC3, bladder
[30] = Homo sapiens, UO-31, UO31, kidney
[31] = Homo sapiens, WSU-NHL, hematological

[N-]=[N+]=CC(=O)CC[C@H](N)C(=O)O [DON, 6-Diazo-5-oxo-L-norleucine, reference compound]
IC50 (Homo sapiens, MDA-MB-436, MDAMB436, breast): 19.8 µM | GI50 [1]: 0.427 µM | IC50 [1]: 0.599 µM | GI50 [2]: 4.61 µM | IC50 [2]: 5.3 µM | GI50 [3]: 1.85 µM | IC50 [3]: 2 µM | GI50 [4]: 3.32 µM | IC50 [4]: 3.58 µM | GI50 [5]: 0.497 µM | IC50 [5]: 0.633 µM | GI50 [6]: 1.22 µM | IC50 [6]: 1.4 µM | GI50 [7]: 5.72 µM | IC50 [7]: 53.1 µM | GI50 [8]: 4.11 µM | IC50 [8]: 4.31 µM | GI50 [9]: 0.889 µM | IC50 [9]: 2.3 µM | GI50 [10]: 0.651 µM | IC50 [10]: 0.752 µM | GI50 [11]: 12.3 µM | IC50 [11]: 13.2 µM | GI50 [12]: 6.53 µM | IC50 [12]: 8.04 µM | GI50 [13]: 4.17 µM | IC50 [13]: 8.6 µM | GI50 (Homo sapiens, Ramos, hematological): 0.672 µM | GI50 [14]: 6.36 µM | IC50 [14]: 33.2 µM | GI50 [15]: 6.32 µM | IC50 [15]: 7.43 µM | GI50 [16]: 4.71 µM | IC50 [16]: 5.23 µM | GI50 [17]: 2.14 µM | IC50 [17]: 3.21 µM | GI50 [18]: 1.79 µM | IC50 [18]: 2.62 µM | GI50 [19]: 1.66 µM | IC50 [19]: 2.3 µM | GI50 [20]: 2.19 µM | IC50 [20]: 3.02 µM | GI50 [21]: 1.69 µM | IC50 [21]: 2.19 µM | GI50 (Homo sapiens, SK-N-AS, SKNAS, brain): 12.6 µM | GI50 [22]: 5.04 µM | IC50 [22]: 7.11 µM | GI50 [23]: 0.769 µM | IC50 [23]: 1.21 µM | GI50 (Homo sapiens, SNB-75, SNB75, brain): 15.5 µM | GI50 (Homo sapiens, SU-DHL10, SU-DHL-10, hematological): 8.42 µM | GI50 [24]: 0.623 µM | IC50 [24]: 0.761 µM | GI50 [25]: 5.38 µM | IC50 [25]: 6.25 µM | GI50 [26]: 4.63 µM | IC50 [26]: 5.1 µM | GI50 [27]: 1.02 µM | IC50 [27]: 1.09 µM | GI50 (Homo sapiens, U2OS, bone): 5.91 µM | IC50 (Homo sapiens, U2OS, bone): 8.4 µM | GI50 [28]: 10.5 µM | IC50 [28]: 11.3 µM | GI50 [29]: 2.23 µM | IC50 [29]: 2.76 µM | GI50 [30]: 0.981 µM | IC50 [30]: 18.6 µM | GI50 [31]: 0.796 µM | IC50 [31]: 0.639 µM | IC50 (J82, bladder): 28.9 µM | IC50 (JAR, placenta): 3.04 µM | IC50 (MT3, breast): 0.791 µM | GI50 (NCI-H358M, NCIH358M, lung): 1.61 µM | IC50 (NCI-H358M, NCIH358M, lung): 4.98 µM | GI50 (PBMC, 5637, bladder): 0.796 µM | GI50 (PBMC, CLS439, bladder): 6.87 µM | GI50 (PBMC, HS729, muscle): 7.42 µM | GI50 (PBMC, J82, bladder): 23.2 µM | GI50 (PBMC, JAR, placenta): 2.81 µM | GI50 (PBMC, MT3, breast): 0.638 µM | GI50 (PBMC, PC3, prostate): 8.37 µM | GI50 (PBMC, RD, muscle): 6.79 µM | GI50 (PBMC, T24, bladder): 3.86 µM | IC50 (PC3, prostate): 11.7 µM | IC50 (RD, muscle): 9.13 µM | GI50 (RD-ES, RDES, bone): 1.96 µM | IC50 (RD-ES, RDES, bone): 3.18 µM | IC50 (T24, bladder): 4 µM
